Assay results from PubChem BioAssay (NCI).
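Exposure lasted 48 hours, with cells grown in 96-well plates and compounds tested at five concentrations. TGI marks complete inhibition of growth.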

Columns and labels:
Assay in all cases: growth of human tumour cells (NCI), 48 h
OVCAR-4 ovarian = test system: OVCAR-4 ovarian
RPMI-8226 leukemia = test system: RPMI-8226 leukemia
NCI-H23 lung = test system: NCI-H23 lung
SF-295 CNS = test system: SF-295 CNS
HCC-2998 colon = test system: HCC-2998 colon
CAKI-1 renal = test system: CAKI-1 renal
HS 578T breast = test system: HS 578T breast
MDA-MB-435 = test system: MDA-MB-435
IGROV1 ovarian = test system: IGROV1 ovarian
HCT-15 colon = test system: HCT-15 colon
OVCAR-5 ovarian = test system: OVCAR-5 ovarian
SF-539 CNS = test system: SF-539 CNS
HCT-116 colon = test system: HCT-116 colon
PC-3 prostate = test system: PC-3 prostate
MALME-3M melanoma = test system: MALME-3M melanoma
MDA-N = test system: MDA-N
HL-60(TB) leukemia = test system: HL-60(TB) leukemia
COLO 205 colon = test system: COLO 205 colon
OVCAR-8 ovarian = test system: OVCAR-8 ovarian
BT-549 breast = test system: BT-549 breast
KM12 colon = test system: KM12 colon
ACHN renal = test system: ACHN renal
CCRF-CEM leukemia = test system: CCRF-CEM leukemia
SK-MEL-2 melanoma = test system: SK-MEL-2 melanoma
OVCAR-3 ovarian = test system: OVCAR-3 ovarian
UACC-257 melanoma = test system: UACC-257 melanoma
RXF 393 renal = test system: RXF 393 renal
SR leukemia = test system: SR leukemia
K-562 leukemia = test system: K-562 leukemia
SK-MEL-28 melanoma = test system: SK-MEL-28 melanoma
MCF7 breast = test system: MCF7 breast
SN12C renal = test system: SN12C renal
NCI-H460 lung = test system: NCI-H460 lung
U251 CNS = test system: U251 CNS
SF-268 CNS = test system: SF-268 CNS
MDA-MB-231 breast = test system: MDA-MB-231 breast
HOP-92 NSCLC = test system: HOP-92 NSCLC
DU-145 prostate = test system: DU-145 prostate
SW-620 colon = test system: SW-620 colon
NCI-H226 lung = test system: NCI-H226 lung
SK-MEL-5 melanoma = test system: SK-MEL-5 melanoma
UO-31 renal = test system: UO-31 renal
786-0 renal = test system: 786-0 renal
HOP-62 NSCLC = test system: HOP-62 NSCLC
TK-10 renal = test system: TK-10 renal
A498 renal = test system: A498 renal
EKVX NSCLC = test system: EKVX NSCLC
MOLT-4 leukemia = test system: MOLT-4 leukemia
NCI/ADR-RES ovarian = test system: NCI/ADR-RES ovarian
NCI-H522 lung = test system: NCI-H522 lung
M14 melanoma = test system: M14 melanoma
UACC-62 melanoma = test system: UACC-62 melanoma
A549 NSCLC = test system: A549 NSCLC
HT29 colon = test system: HT29 colon
SK-OV-3 ovarian = test system: SK-OV-3 ovarian
SNB-19 CNS = test system: SNB-19 CNS
LOX IMVI melanoma = test system: LOX IMVI melanoma
SNB-75 CNS = test system: SNB-75 CNS

Measured: TGI

CCOC(=O)c1cc(NC(=O)c2ccccc2)c(=O)n2c(cc3c(Cl)cccc32)c1O
> 100 µM: OVCAR-4 ovarian | RPMI-8226 leukemia | NCI-H23 lung | SF-295 CNS | HCC-2998 colon | CAKI-1 renal | HS 578T breast | MDA-MB-435 | IGROV1 ovarian | HCT-15 colon | OVCAR-5 ovarian | SF-539 CNS | HCT-116 colon | PC-3 prostate | MALME-3M melanoma | MDA-N | HL-60(TB) leukemia | COLO 205 colon | OVCAR-8 ovarian | BT-549 breast | KM12 colon | ACHN renal | CCRF-CEM leukemia | SK-MEL-2 melanoma | OVCAR-3 ovarian | UACC-257 melanoma | RXF 393 renal | SR leukemia | K-562 leukemia | SK-MEL-28 melanoma | MCF7 breast | SN12C renal | NCI-H460 lung | U251 CNS | SF-268 CNS | MDA-MB-231 breast | HOP-92 NSCLC | DU-145 prostate | SW-620 colon | NCI-H226 lung | SK-MEL-5 melanoma | UO-31 renal | 786-0 renal | HOP-62 NSCLC | TK-10 renal | A498 renal | EKVX NSCLC | MOLT-4 leukemia | NCI/ADR-RES ovarian | NCI-H522 lung | M14 melanoma | UACC-62 melanoma | A549 NSCLC | HT29 colon | SK-OV-3 ovarian | SNB-19 CNS | LOX IMVI melanoma

NC1=NC(=O)[C@H](CSCc2ccccc2)N1C(=O)OCc1ccccc1
> 100 µM: OVCAR-4 ovarian | NCI-H23 lung | SF-295 CNS | HCC-2998 colon | CAKI-1 renal | HS 578T breast | MDA-MB-435 | IGROV1 ovarian | HCT-15 colon | OVCAR-5 ovarian | HCT-116 colon | PC-3 prostate | MALME-3M melanoma | MDA-N | HL-60(TB) leukemia | COLO 205 colon | OVCAR-8 ovarian | BT-549 breast | KM12 colon | ACHN renal | SK-MEL-2 melanoma | OVCAR-3 ovarian | UACC-257 melanoma | RXF 393 renal | SR leukemia | K-562 leukemia | MCF7 breast | SN12C renal | NCI-H460 lung | SNB-75 CNS | U251 CNS | SF-268 CNS | MDA-MB-231 breast | DU-145 prostate | SW-620 colon | NCI-H226 lung | SK-MEL-5 melanoma | UO-31 renal | 786-0 renal | HOP-62 NSCLC | TK-10 renal | A498 renal | EKVX NSCLC | MOLT-4 leukemia | NCI/ADR-RES ovarian | NCI-H522 lung | UACC-62 melanoma | HT29 colon | SNB-19 CNS | LOX IMVI melanoma
